Measurements from patent US20240116985A1, “STAPLED PEPTIDES AND METHODS THEREOF” (priority 2020, published 2024).
Like-named read-outs stand apart in the source and are kept apart here.

Columns and labels:
[1] = CHI Log D procedure; format: physicochemical
[2] = target: T1, full-length beta-Catenin (Uniprot ID P35222) (Homo sapiens, UniProt P35222); test: Fluorescence polarization IC50 (beta-catenin / 5FAM-TCF4 10-53 competition); format: binding
T1 construct: 10 nM full-length beta-Catenin (Uniprot ID P35222)
T1 sequence (P35222 1-781): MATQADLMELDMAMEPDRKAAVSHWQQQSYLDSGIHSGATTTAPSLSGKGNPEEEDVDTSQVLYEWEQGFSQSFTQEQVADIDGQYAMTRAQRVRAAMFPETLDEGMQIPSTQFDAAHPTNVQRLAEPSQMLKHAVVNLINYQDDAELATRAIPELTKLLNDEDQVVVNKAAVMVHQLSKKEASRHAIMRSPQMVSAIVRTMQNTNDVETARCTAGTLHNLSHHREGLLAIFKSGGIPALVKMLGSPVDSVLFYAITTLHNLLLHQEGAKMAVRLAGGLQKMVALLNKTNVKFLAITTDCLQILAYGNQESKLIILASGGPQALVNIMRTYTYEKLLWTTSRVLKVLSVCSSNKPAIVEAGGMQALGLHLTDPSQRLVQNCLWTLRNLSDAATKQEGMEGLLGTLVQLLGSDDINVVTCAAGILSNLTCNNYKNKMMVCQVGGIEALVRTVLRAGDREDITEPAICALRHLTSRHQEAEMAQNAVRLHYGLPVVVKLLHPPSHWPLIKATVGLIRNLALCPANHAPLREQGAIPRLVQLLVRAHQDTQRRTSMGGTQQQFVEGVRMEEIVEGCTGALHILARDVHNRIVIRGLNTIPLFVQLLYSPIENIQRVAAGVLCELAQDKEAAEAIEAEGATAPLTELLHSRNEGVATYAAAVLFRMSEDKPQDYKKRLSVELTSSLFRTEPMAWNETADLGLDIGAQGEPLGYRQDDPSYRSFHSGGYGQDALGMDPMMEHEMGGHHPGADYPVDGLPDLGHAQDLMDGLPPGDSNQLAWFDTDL

[3] = fluorescence polarization, read-out: beta-Catenin FP IC50

CHI Log D ([1]; pH 7.4) | IC50 [2, 3] [nM] | IC50 ([2]; read-out: FP EC50) [nM] | chromatographic logD ([1]; pH 7.4, CHI Log D) | SMILES | further results
2.822 | 376 | 376 | – | CC[C@H](C)[C@H](NC(=O)[C@H](Cc1c[nH]cn1)NC(=O)[C@H](Cc1csc2ccccc12)NC(=O)[C@H](Cc1ccccc1)NC(=O)[C@]1(C)CCCCCCC=CCCCC2(CCCC=CC[C@]3(CCCN3C(C)=O)C(=O)N[C@@H](CC(=O)O)C(=O)N[C@@H](CC(C)C)C(=O)N2)C(=O)N[C@@H](CC(=O)O)C(=O)N[C@@H](CCC(=O)O)C(=O)N[C@@H](C)C(=O)N[C@@H](C)C(=O)N[C@@H](Cc2ccccc2)C(=O)N[C@@H](CC(N)=O)C(=O)N1)C(N)=O (stereo partly drawn) [I-740, Ac-PL3-Asp-Leu-B5-Asp-Glu-Ala-Ala-Phe-Asn-S8-Phe-BztA-His-Ile-NH2] | –
2.366 | 56 | 56 | – | CC(=O)N1CCC[C@]12CC=CCCCC1(CCCC=CCCCCCC[C@@](C)(C(=O)N[C@@H](Cc3ccccc3)C(=O)N[C@@H](Cc3csc4ccccc34)C(=O)N[C@@H](CCC(N)=O)C(=O)N[C@@H](C)C(N)=O)NC(=O)[C@H](CC(N)=O)NC(=O)[C@H](Cc3ccccc3)NC(=O)[C@H](C)NC(=O)[C@H](C)NC(=O)[C@H](CCC(=O)O)NC(=O)[C@H](CC(=O)O)NC1=O)NC(=O)[C@H](CC(C)C)NC(=O)[C@H](CC(=O)O)NC2=O (stereo partly drawn) [I-729, Ac-PL3-Asp-Leu-B5-Asp-Glu-Ala-Ala-Phe-Asn-S8-Phe-BztA-Gln-Ala-NH2] | –
– | – | – | 2.07 | CC(=O)N1CCC[C@]12CC=CCCCC1(CCCC=CCCCOC(=O)N3CC[C@@](C(=O)N[C@@H](Cc4ccsc4)C(=O)N[C@@H](Cc4c[nH]c5cc(Cl)ccc45)C(=O)N[C@@H](Cc4c[nH]cn4)C(N)=O)(C3)NC(=O)[C@H](CC(N)=O)NC(=O)[C@H](Cc3ccccc3)NC(=O)[C@H](C)NC(=O)[C@H](C)NC(=O)[C@H](CC(=O)O)NC(=O)[C@H](CC(=O)O)NC1=O)NC(=O)[C@H](CC(C)(C)C)NC(=O)[C@H](CC(=O)O)NC2=O (stereo partly drawn) [I-798, Ac-PL3-Asp-Npg-B5-Asp-Asp-Ala-Ala-Phe-Asn-PyrS2-3Thi-6C1W-His-NH2] | IC50 ([2]; read-out: beta-Catenin FP IC50): 106 nM
2.199 | 675 | 675 | – | CC[C@H](C)[C@@H]1NC(=O)C[C@H](C(=O)O)NC(=O)[C@]2(CC=CCCCC3(CCCC=CCCCCCC[C@@](C)(C(=O)N[C@@H](Cc4ccccc4)C(=O)N[C@@H](Cc4csc5ccccc45)C(=O)N[C@@H](CCC(N)=O)C(N)=O)NC(=O)[C@H](CCC(N)=O)NC(=O)[C@H](Cc4ccccc4)NC(=O)[C@H](C)NC(=O)[C@H](C)NC(=O)[C@H](CCC(=O)O)NC(=O)[C@H](CC(=O)O)NC3=O)NC1=O)CCCN2C(C)=O (stereo partly drawn) [I-668, Ac-PL3-isoDAsp-Ile-B5-Asp-Glu-Ala-Ala-Phe-Gln-S8-Phe-BztA-Gln-NH2] | –
2.044 | – | – | – | CC(=O)N1CCC[C@]12CC=CCCCC1(CCCC=CCCCOC(=O)N3CC[C@@](C(=O)N[C@@H](Cc4ccccc4Cl)C(=O)N[C@@H](Cc4csc5ccccc45)C(=O)N[C@@H](CO)C(N)=O)(C3)NC(=O)[C@H](CC(C)C)NC(=O)[C@H](Cc3ccccc3)NC(=O)[C@H](C)NC(=O)[C@H](C)NC(=O)[C@H](CC(=O)O)NC(=O)[C@H](CC(=O)O)NC1=O)NC(=O)[C@H](CC(C)(C)C)NC(=O)[C@H](CC(=O)O)NC2=O (stereo partly drawn) [I-1065, Ac-PL3-Asp-Npg-B5-Asp-Asp-Ala-Ala-Phe-Leu-PyrS2-2C1F-BztA-Ser-NH2] | IC50 ([2]; fluorescence polarization, beta-catenin, read-out: FP EC50): 520 nM; IC50 ([2]; read-out: beta-Catenin FP IC50): 520 nM
– | 5000 | – | 2.29 | CC[C@H](C)[C@@H]1NC(=O)[C@H](CC(=O)O)NC(=O)[C@]2(CC=CCCCC3(CCCC=CCCCCCC[C@@](C)(C(=O)N[C@@H](Cc4ccccc4)C(=O)N[C@@H](Cc4csc5ccccc45)C(=O)N[C@@H](CCC(N)=O)C(N)=O)NC(=O)[C@H](CCC(N)=O)NC(=O)[C@H](Cc4ccccc4)NC(=O)[C@H](C)NC(=O)[C@H](C)NC(=O)[C@H](CCC(=O)O)NC(=O)C[C@@H](CC(=O)O)NC3=O)NC1=O)CCCN2C(C)=O (stereo partly drawn) [I-676, Ac-PL3-Asp-Ile-B5-SbGlu-Glu-Ala-Ala-Phe-Gln-S8-Phe-BztA-Gln-NH2] | –
1.831 | 57 | 57 | – | CC(=O)N1CCC[C@]12CC=CCCCC1(CCCC=CCCCCOC(=O)N3CC[C@@](C(=O)N[C@@H](Cc4ccccc4)C(=O)N[C@@H](Cc4csc5ccccc45)C(=O)N[C@@H](CCC(N)=O)C(N)=O)(C3)NC(=O)[C@H](CC(N)=O)NC(=O)[C@H](Cc3ccccc3)NC(=O)[C@H](C)NC(=O)[C@H](C)NC(=O)[C@H](CCC(=O)O)NC(=O)[C@H](CC(=O)O)NC1=O)NC(=O)[C@H](C)NC(=O)[C@H](CC(=O)O)NC2=O (stereo partly drawn) [I-464, Ac-PL3-Asp-Ala-B5-Asp-Glu-Ala-Ala-Phe-Asn-PyrS3-Phe-BztA-Gln-NH2] | –

More lines, now with the values behind:

SMILES | CHI Log D ([1]; pH 7.4) | IC50 [2, 3] [nM] | IC50 ([2]; read-out: FP EC50) [nM] | chromatographic logD ([1]; pH 7.4, CHI Log D) | further results
CC[C@H](C)[C@@H]1NC(=O)[C@H](CC(=O)O)NC(=O)[C@]2(CC=CCCCC3(CCCC=CCCCCCC[C@@](C)(C(=O)N[C@@H](Cc4ccccc4)C(=O)N[C@@H](Cc4csc5ccccc45)C(=O)N[C@@H](CCC(N)=O)C(N)=O)NC(=O)[C@H](CCCCNC(=O)CN=[N+]=[N-])NC(=O)[C@H](Cc4ccccc4)NC(=O)[C@H](C)NC(=O)[C@H](C)NC(=O)[C@H](CCC(=O)O)NC(=O)[C@H](CC(=O)O)NC3=O)NC1=O)CCCN2C(C)=O (stereo partly drawn) [I-594, Ac-PL3-Asp-Ile-B5-Asp-Glu-Ala-Ala-Phe-[AzAc]Lys-S8-Phe-BztA-Gln-NH2] | – | – | – | – | chromatographic logD ([1]; pH 7.4): 2.61; IC50 ([2]; FP EC50 (nM)): 87 nM
CC(=O)N1CCC[C@]12CC=CCCCC1(CCCC=CCCCCCC[C@@](C)(C(=O)N[C@@H](Cc3ccccc3)C(=O)N[C@@H](Cc3csc4ccccc34)C(=O)N[C@@H](CCC(N)=O)C(N)=O)NC(=O)[C@H](CC(N)=O)NC(=O)[C@H](Cc3cccc(C)c3)NC(=O)[C@H](C)NC(=O)[C@H](C)NC(=O)[C@H](CCC(=O)O)NC(=O)[C@H](CC(=O)O)NC1=O)NC(=O)[C@H](C)NC(=O)[C@H](CC(=O)O)NC2=O (stereo partly drawn) [I-458, Ac-PL3-Asp-Ala-B5-Asp-Glu-Ala-Ala-3MeF-Asn-S8-Phe-BztA-Gln-NH2] | – | 102 | – | 2.07 | –
CC(=O)N1CCC[C@]12CC=CCCCC1(CCCC=CCCCCCC[C@@](C)(C(=O)N[C@@H](Cc3ccccc3)C(=O)N[C@@H](Cc3csc4ccccc34)C(=O)N[C@@H](CCC(N)=O)C(N)=O)NC(=O)[C@H](CC(N)=O)NC(=O)[C@H](Cc3ccccc3C)NC(=O)[C@H](C)NC(=O)[C@H](C)NC(=O)[C@H](CCC(=O)O)NC(=O)[C@H](CC(=O)O)NC1=O)NC(=O)[C@H](C)NC(=O)[C@H](CC(=O)O)NC2=O (stereo partly drawn) [I-457, Ac-PL3-Asp-Ala-B5-Asp-Glu-Ala-Ala-2MeF-Asn-S8-Phe-BztA-Gln-NH2] | 2.0242 | 1440 | 1440 | – | –
CC(=O)N1CCC[C@]12CC=CCCCC1(CCCC=CCCCCCC[C@@](C)(C(=O)N[C@@H](Cc3ccccc3)C(=O)N[C@@H](Cc3csc4ccccc34)C(=O)N[C@@H](CCC(N)=O)C(N)=O)NC(=O)[C@H](CC(N)=O)NC(=O)[C@H](Cc3ccccc3C)NC(=O)[C@H](C)NC(=O)[C@H](C)NC(=O)[C@H](CCC(=O)O)NC(=O)[C@H](CC(=O)O)NC1=O)NC(=O)[C@H](C)NC(=O)[C@H](CC(=O)O)NC2=O (stereo partly drawn) [I-456, Ac-PL3-Asp-Ala-B5-Asp-Glu-Ala-Ala-2MeF-Asn-S8-Phe-BztA-Gln-NH2] | 2.0045 | 2170 | 2170 | – | –
CC(=O)N1CCC[C@]12CC=CCCCC1(CCCC=CCCCCCC[C@@](C)(C(=O)N[C@@H](Cc3ccccc3)C(=O)N[C@@H](Cc3csc4ccccc34)C(=O)N[C@@H](CCC(N)=O)C(N)=O)NC(=O)[C@H](CC(N)=O)NC(=O)[C@H](Cc3ccccc3F)NC(=O)[C@H](C)NC(=O)[C@H](C)NC(=O)[C@H](CCC(=O)O)NC(=O)[C@H](CC(=O)O)NC1=O)NC(=O)[C@H](C)NC(=O)[C@H](CC(=O)O)NC2=O (stereo partly drawn) [I-453, Ac-PL3-Asp-Ala-B5-Asp-Glu-Ala-Ala-2FF-Asn-S8-Phe-BztA-Gln-NH2] | – | 1550 | – | 2.01 | –
CC(=O)N1CCC[C@]12CC=CCCCC1(CCCC=CCCCCCC[C@@](C)(C(=O)N[C@@H](Cc3ccccc3)C(=O)N[C@@H](Cc3c[nH]c4ccccc34)C(=O)N[C@@H](CCC(N)=O)C(N)=O)NC(=O)[C@H](C(C)C)NC(=O)[C@H](Cc3ccccc3)NC(=O)[C@H](C)NC(=O)[C@H](C)NC(=O)[C@H](CCC(=O)O)NC(=O)[C@H](CC(N)=O)NC1=O)NC(=O)[C@H](C)NC(=O)[C@H](CC(=O)O)NC2=O (stereo partly drawn) [I-198, Ac-PL3-Asp-Ala-B5-Asn-Glu-Ala-Ala-Phe-Val-S8-Phe-Trp-Gln-NH2] | – | – | – | 2.37 | IC50 ([2]; Table E2-1, read-out: beta-Catenin FP IC50): 5000 nM
CC(=O)N1CCC[C@]12CC=CCCCC1(CCCC=CCCCCCC[C@@](C)(C(=O)N[C@@H](Cc3ccccc3)C(=O)N[C@@H](Cc3csc4ccccc34)C(=O)N[C@@H](Cc3c[nH]cn3)C(N)=O)NC(=O)[C@H](CCC(N)=O)NC(=O)[C@H](Cc3ccccc3)NC(=O)[C@H](C)NC(=O)[C@H](C)NC(=O)[C@H](CCC(=O)O)NC(=O)[C@H](CC(=O)O)NC1=O)NC(=O)[C@H](C)NC(=O)[C@H](CC(=O)O)NC2=O (stereo partly drawn) [I-419, Ac-PL3-Asp-Ala-B5-Asp-Glu-Ala-Ala-Phe-Gln-S8-Phe-BztA-His-NH2] | 2.114 | 23 | 23 | – | –
